According to the Deep4Chem optical property database:
One block for each molecule: values may come before it.

Test: solvent given as SMILES

SMILES: COc1ccc2c(c1)CCc1c-2nc(N)c(C#N)c1-c1ccc(Br)cc1
absorption maximum (in C1CCOC1): 362 nm
absorption maximum (in C1COCCO1): 366 nm
absorption maximum (in CC#N): 364 nm
absorption maximum (in CCCCCC): 360 nm
absorption maximum (in CCO): 370 nm
absorption maximum (in CN(C)C=O): 375 nm
absorption maximum (in CO): 371 nm
absorption maximum (in CS(C)=O): 379 nm
absorption maximum (in ClC(Cl)Cl): 368 nm
absorption maximum (in ClCCl): 365 nm

SMILES: CCN1CCN(c2ccc(/N=N/c3cc([N+](=O)[O-])cc([N+](=O)[O-])c3)cc2)CC1
absorption maximum (in CCOC(C)=O): 454 nm

SMILES: COCCOc1cc(C=O)c(OCCOC)cc1C=O
absorption maximum (in CC(C)(C)O): 393 nm
absorption maximum (in CC(C)CO): 391 nm
absorption maximum (in CC(C)O): 390 nm
absorption maximum (in CCCCO): 363 nm
absorption maximum (in CCCO): 363 nm
absorption maximum (in CCO): 362 nm
absorption maximum (in CN(C)C=O): 392 nm
absorption maximum (in CNC=O): 351 nm
absorption maximum (in CO): 353 nm
absorption maximum (in NC=O): 354 nm
absorption maximum (in O): 391 nm

SMILES: N#Cc1ccc(N)c2nonc12
absorption maximum (in C1COCCO1): 418 nm
absorption maximum (in CC#N): 421 nm
absorption maximum (in CCCCCC): 397 nm
absorption maximum (in CCO): 430 nm
absorption maximum (in Cc1ccccc1): 409 nm
absorption maximum (in ClCCl): 407 nm
absorption maximum (in O): 430 nm

SMILES: CCCCCCCCCCCCc1sc(CCCCCC)c2c3cc(CCCCCC)sc3c3sc(CCCCCC)cc3c12
absorption maximum (in ClC(Cl)Cl): 373 nm

SMILES: F[B-]1(F)OC(c2ccccc2)=CC(c2ccccc2)=[O+]1
absorption maximum (in CC#N): 376 nm
absorption maximum (in ClC(Cl)(Cl)Cl): 375 nm

SMILES: N#Cc1ccc(-n2nc(C#N)c(N3CCCC3)n2)cc1
absorption maximum (in CC#N): 362 nm

SMILES: CCOc1ccc(/C=C/c2nc(N3CCOCC3)c3c([n+]2[O-])CCCC3)cc1
absorption maximum (in ClCCl): 384 nm

SMILES: CCCCN(CCCC)c1ccc2c#cc3cc4c#cc5ccc(C(F)(F)F)cc5c#cc#cc5cc(N(CCCC)CCCC)ccc5c#cc4cc3c#cc3ccc(C(F)(F)F)cc3c#cc#cc2c1
absorption maximum (in ClCCl): 472 nm

Results, then the molecule that gave them:

absorption maximum (in C1CCOC1): 395 nm
SMILES: CCOc1cc(C=C2c3ccccc3-c3ccccc32)c(OCC)cc1C=C1c2ccccc2C=Cc2ccccc21

absorption maximum (in C1COCCO1): 447 nm
absorption maximum (in CC#N): 441 nm
absorption maximum (in CCCCOCCCC): 453 nm
absorption maximum (in CCOC(C)=O): 451 nm
SMILES: CC(=O)Nc1ccc2c3cccc4cccc(c5cccc1c52)c43

absorption maximum (in ClCCl): 346 nm
SMILES: C[Si]1(C)c2ccc(C#Cc3ccccc3)cc2C=Cc2cc(C#Cc3ccccc3)ccc21

absorption maximum (in ClCCl): 419 nm
SMILES: C(=C\c1cc(-c2ccc3ccccc3c2)c(/C=C/c2ccc(N(c3ccccc3)c3ccccc3)cc2)cc1-c1ccc2ccccc2c1)/c1ccc(N(c2ccccc2)c2ccccc2)cc1

absorption maximum (in CS(C)=O): 284 nm
SMILES: COC(=O)[C@@H]1C(=O)Oc2ccccc2[C@H]1c1c[nH]c2ccccc12

absorption maximum (in ClC(Cl)Cl): 598 nm
SMILES: CC[N+](CC)=c1ccc2c(-c3ccccc3C(=O)O)c3cc4c(-c5ccccc5C(=O)O)c5ccc(=[N+](CC)CC)cc-5oc4cc3oc-2c1

absorption maximum (in CS(C)=O): 350 nm
SMILES: c1ccc2c(-c3nc4sc5ccccc5c4s3)cccc2c1

absorption maximum (in c1ccccc1): 474 nm
SMILES: CN(C)c1ccc2ccc3oc(=O)c(-c4ccccc4)nc3c2c1

absorption maximum (in CC#N): 710 nm
absorption maximum (in ClCCl): 718 nm
SMILES: F[B-]1(F)n2c(-c3cccs3)cc(-c3ccccc3)c2N=C2C(c3ccccc3)=CC(c3cccs3)=[N+]21
